Results taken from PubChem BioAssay AID248 (DTP/NCI, 2004).
Values joined by “and” are separate entries in the source; they are usually repeats but may differ in a detail not shown here. Equal values may be shown once. Toxic doses and inconclusive results are not listed. Rule as the data show it: active = T/C of 150% or more; inactive = T/C below 125%.

Tested on: L1210 leukemia ip in BDF1 mice, survival T/C
Test: NCI In Vivo Anticancer Drug Screen. Data for tumor model L1210 Leukemia (intraperitoneal) in B6D2F1 (BDF1) mice
Conditions: endpoint: mean survival time, higher = longer survival
Summary of the method: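 Mice bearing the transplanted tumor received compound or vehicle. Survival of the treated group was divided by that of the vehicle-treated control group to give the ratio.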

[1] = dose: 100.0 mg/kg/injection, schedule: Q04DX003 (ip), vehicle: saline
[2] = dose: 200.0 mg/kg/injection, schedule: Q04DX003 (ip), vehicle: saline
[3] = dose: 400.0 mg/kg/injection, schedule: Q04DX003 (ip), vehicle: saline
[4] = dose: 100.0 mg/kg/injection, schedule: Q01DX001 (ip), vehicle: Klucel (hydroxypropylcellulose) (HPC)
[5] = dose: 200.0 mg/kg/injection, schedule: Q01DX001 (ip), vehicle: Klucel (hydroxypropylcellulose) (HPC)
[6] = dose: 400.0 mg/kg/injection, schedule: Q01DX001 (ip), vehicle: Klucel (hydroxypropylcellulose) (HPC)
[7] = dose: 100.0 mg/kg/injection, schedule: Q01DX009 (ip), vehicle: saline with Tween-80
[8] = dose: 100.0 mg/kg/injection, schedule: Q04DX003 (ip), vehicle: saline with Tween-80
[9] = dose: 200.0 mg/kg/injection, schedule: Q01DX009 (ip), vehicle: saline with Tween-80
[10] = dose: 200.0 mg/kg/injection, schedule: Q04DX003 (ip), vehicle: saline with Tween-80
[11] = dose: 400.0 mg/kg/injection, schedule: Q04DX003 (ip), vehicle: saline with Tween-80
[12] = dose: 100.0 mg/kg/injection, schedule: Q04DX002 (ip), vehicle: Klucel (hydroxypropylcellulose) (HPC)
[13] = dose: 200.0 mg/kg/injection, schedule: Q04DX002 (ip), vehicle: Klucel (hydroxypropylcellulose) (HPC)
[14] = dose: 400.0 mg/kg/injection, schedule: Q04DX002 (ip), vehicle: Klucel (hydroxypropylcellulose) (HPC)
[15] = dose: 100.0 mg/kg/injection, schedule: Q01DX001 (ip), vehicle: saline
[16] = dose: 200.0 mg/kg/injection, schedule: Q01DX001 (ip), vehicle: saline
[17] = dose: 400.0 mg/kg/injection, schedule: Q01DX001 (ip), vehicle: saline
[18] = dose: 25.0 mg/kg/injection, schedule: Q01DX009 (ip), vehicle: saline with Tween-80
[19] = dose: 50.0 mg/kg/injection, schedule: Q01DX009 (ip), vehicle: saline with Tween-80
[20] = dose: 100.0 mg/kg/injection, schedule: Q01DX001 (ip), vehicle: saline with Tween-80

Measured: T/C

OC1C=CC2C3C=CC(C3)C12 (centres undefined)
inactive: dose: 50.0 mg/kg/injection, schedule: Q01DX009 (ip), vehicle: saline 102 % of control | dose: 50.0 mg/kg/injection, schedule: Q04DX003 (ip), vehicle: saline 102 % of control | dose: 100.0 mg/kg/injection, schedule: Q01DX009 (ip), vehicle: saline 104 % of control | [1] 103 % of control | dose: 200.0 mg/kg/injection, schedule: Q01DX009 (ip), vehicle: saline 95 % of control | [2] 94 % of control | dose: 400.0 mg/kg/injection, schedule: Q01DX009 (ip), vehicle: saline 95 % of control | [3] 91 % of control

CC(=O)Oc1cc(NC(=O)c2ccccc2)ccc1NC(=O)c1ccccc1
inactive: [4] 93 % of control | dose: 100.0 mg/kg/injection, schedule: Q01DX009 (ip), vehicle: Klucel (hydroxypropylcellulose) (HPC) 89 % of control | [5] 92 % of control | dose: 200.0 mg/kg/injection, schedule: Q01DX009 (ip), vehicle: Klucel (hydroxypropylcellulose) (HPC) 90 % of control | [6] 104 % of control | dose: 400.0 mg/kg/injection, schedule: Q01DX009 (ip), vehicle: Klucel (hydroxypropylcellulose) (HPC) 100 % of control

Cc1ccc2c(c1)nc1c3ccccc3nc(-c3ccccc3N)n21
inactive: [7] 89 % of control | [8] 104 % of control | [9] 87 % of control | [10] 91 % of control | [11] 104 % of control

FC(F)(F)c1cccc(NC(=S)SCc2ccc(Cl)cc2)c1
inactive: dose: 15.0 mg/kg/injection, schedule: Q04DX003 (ip), vehicle: saline 102 % of control | dose: 30.0 mg/kg/injection, schedule: Q04DX003 (ip), vehicle: saline 102 % of control | dose: 60.0 mg/kg/injection, schedule: Q04DX003 (ip), vehicle: saline 102 % of control | [12] 87 % of control | [13] 112 % of control

COC(=O)C1(C)CCCC2(C)C1CCC13CCC(C)(CCC21)C3O (centres undefined)
inactive: [12] 103 % of control | [13] 92 % of control | [14] 92 % of control

O=C1C=C(c2ccccc2)C(=O)c2ccccc21
inactive: [4] 106 % of control | [5] 101 % of control | [6] 105 % of control

CC12CCC(=O)C=C1CCC1C2CCC2(C)C(C(=O)COC(=O)c3cc([N+](=O)[O-])c(N4CC4)c([N+](=O)[O-])c3)CCC12 (centres undefined)
inactive: dose: 50.0 mg/kg/injection, schedule: Q01DX001 (sc), vehicle: steriod suspending solution 95 % of control | dose: 60.0 mg/kg/injection, schedule: Q01DX015 (ip), vehicle: saline 88 % of control | dose: 90.0 mg/kg/injection, schedule: Q01DX015 (ip), vehicle: saline 86 % of control | dose: 100.0 mg/kg/injection, schedule: Q01DX001 (sc), vehicle: steriod suspending solution 106 % of control | dose: 135.0 mg/kg/injection, schedule: Q01DX015 (ip), vehicle: saline 88 % of control | dose: 200.0 mg/kg/injection, schedule: Q01DX001 (sc), vehicle: steriod suspending solution 97 % of control | dose: 200.0 mg/kg/injection, schedule: Q01DX015 (ip), vehicle: saline 91 % of control | dose: 400.0 mg/kg/injection, schedule: Q01DX001 (sc), vehicle: steriod suspending solution 101 % of control

CCOC(=O)C1CC(C)=C(C)CC1C(=O)O (centres undefined)
inactive: [7] 87 % of control | [8] 98 % of control | [9] 97 % of control | [10] 90 % of control | dose: 400.0 mg/kg/injection, schedule: Q01DX009 (ip), vehicle: saline with Tween-80 92 % of control | [11] 98 % of control

COc1ccc2c(c1OC)C(=O)O[C@@H]2[C@H]1c2c(cc3c(c2OC)OCO3)CCN1C
inactive: dose: 31.3 mg/kg/injection, schedule: Q01DX009 (ip), vehicle: saline 95 % of control and 100 % of control (2×) | dose: 50.0 mg/kg/injection, schedule: Q01DX001 (ip), vehicle: saline 96 % of control | dose: 62.5 mg/kg/injection, schedule: Q01DX009 (ip), vehicle: saline 94 % of control and 100 % of control (2×) | [15] 102 % of control | dose: 125.0 mg/kg/injection, schedule: Q01DX009 (ip), vehicle: saline 96 % of control and 97 % of control and 91 % of control | [16] 107 % of control | dose: 250.0 mg/kg/injection, schedule: Q01DX009 (ip), vehicle: saline 102 % of control and 104 % of control and 91 % of control | [17] 111 % of control

CCCC[Si]CCCC
inactive: dose: 25.0 mg/kg/injection, schedule: Q01DX001 (ip), vehicle: saline with Tween-80 103 % of control | [18] 103 % of control | dose: 50.0 mg/kg/injection, schedule: Q01DX001 (ip), vehicle: saline with Tween-80 110 % of control | [19] 101 % of control | [20] 102 % of control | [7] 101 % of control

O=C(NNc1ccccc1)C(O)C(O)C(O)C(O)C(O)CO (centres undefined)
inactive: [12] 98 % of control | [13] 95 % of control | [14] 91 % of control

COc1cc(I)cc(OC)c1OC
inactive: [8] 97 % of control | [10] 94 % of control | [11] 100 % of control

Nc1ccc(Cn2ccc(=O)[nH]c2=O)cc1
inactive: [20] 102 % of control | dose: 200.0 mg/kg/injection, schedule: Q01DX001 (ip), vehicle: saline with Tween-80 94 % of control | dose: 400.0 mg/kg/injection, schedule: Q01DX001 (ip), vehicle: saline with Tween-80 87 % of control

N#CCCN1CCCSC1=S
inactive: dose: 75.0 mg/kg/injection, schedule: Q01DX001 (ip), vehicle: other 109 % of control | dose: 150.0 mg/kg/injection, schedule: Q01DX001 (ip), vehicle: other 115 % of control | dose: 300.0 mg/kg/injection, schedule: Q01DX001 (ip), vehicle: other 113 % of control

CCC(=O)c1ccc2c(c1)N(CCCN(C)C)c1ccccc1S2
inactive: dose: 6.25 mg/kg/injection, schedule: Q01DX009 (ip), vehicle: saline with Tween-80 98 % of control | dose: 12.5 mg/kg/injection, schedule: Q01DX009 (ip), vehicle: saline with Tween-80 96 % of control | [18] 115 % of control | [19] 107 % of control

c1ccc(Nc2ccc(C(c3ccccc3)(c3ccccc3)c3ccccc3)cc2)cc1
inactive: dose: 25.6 mg/kg/injection, schedule: Q04DX002 (ip), vehicle: saline with Tween-80 97 % of control | dose: 64.0 mg/kg/injection, schedule: Q04DX002 (ip), vehicle: saline with Tween-80 94 % of control | dose: 160.0 mg/kg/injection, schedule: Q04DX002 (ip), vehicle: saline with Tween-80 97 % of control | dose: 400.0 mg/kg/injection, schedule: Q04DX002 (ip), vehicle: saline with Tween-80 91 % of control

CC1C(c2ccccc2)N1P(I)(c1ccccc1)(c1ccccc1)c1ccccc1 (centres undefined)
inactive: dose: 15.0 mg/kg/injection, schedule: Q01DX001 (ip), vehicle: carboxymethylcellulose (CMC) 116 % of control

O=C(c1ccccc1)c1nc2ccccc2s1
inactive: dose: 12.5 mg/kg/injection, schedule: Q01DX005 (ip), vehicle: other 94 % of control | dose: 25.0 mg/kg/injection, schedule: Q01DX005 (ip), vehicle: other 90 % of control | dose: 50.0 mg/kg/injection, schedule: Q01DX005 (ip), vehicle: other 89 % of control | dose: 100.0 mg/kg/injection, schedule: Q01DX005 (ip), vehicle: other 89 % of control | dose: 200.0 mg/kg/injection, schedule: Q01DX005 (ip), vehicle: other 89 % of control

CC(=O)Nc1ccc(S(=O)(=O)NC2CCCCC2)cc1
inactive: dose: 50.0 mg/kg/injection, schedule: Q01DX001 (ip), vehicle: Klucel (hydroxypropylcellulose) (HPC) 94 % of control | [4] 97 % of control | [5] 100 % of control

CCCc1cn(C(=O)NC2CCCCC2)c2ccccc12
inactive: [15] 94 % of control | [1] 106 % of control | [16] 94 % of control | [2] 112 % of control | [17] 87 % of control | [3] 93 % of control

CN(C)c1ccc2[nH]c(=O)c3ccccc3c2c1
inactive: dose: 75.0 mg/kg/injection, schedule: Q01DX001 (ip), vehicle: carboxymethylcellulose (CMC) 101 % of control
